# Measured values from patent US9289446B2, “Myocardial perfusion imaging methods and compositions” (GILEAD SCIENCES, INC., priority 2002, dated 2016).
# How the values were obtained:
# [1] = Solubility of CVT-3146 in water and in MBA-containing composition; type: physicochemical; conditions: methylboronic acid co-solvent, dependence on pH
# Experimental: A preferred A2A receptor agonist of this invention is CVT-3146. CVT-3146 has solubility in water of about 50 micrograms/mL. Therefore, CVT-3146 can be dissolved and administered in water so long as the desired weight amount of CVT-3146 can be administered in an acceptable volume. For example, a preferred dose of about 400 micrograms can be administered in 8 mL of water. If this volume is too great for administration purposes, or if the pharmaceutical composition will be stored at other than room temperature (RT), then additional ingredients can be added to the composition to increase the solubility of CVT-3146 in the composition and/or to provide the resulting pharmaceutical composition with other improved properties such as improved stability and storage properties. Pharmaceutical compositions of this invention that include CVT-3146 may include up to about 1 milligram/mL of CVT-3146. It is preferred that pharmaceutical compositions including CVT-3146 include from about 50 to about 250 micrograms/mL, and more preferably from about 50 to 150 micrograms/mL of CVT-3146.
# In order to improve their solubility and storage properties, A2A receptor agonists of this invention can be administered in a pharmaceutical composition including a methylboronic acid (MBA) co-solvent. The methylboronic acid is added to the pharmaceutical composition to improve agonist solubility and shelf life. […]
# [2] = system: coronary blood flow velocity (CBFv); test: Example 1: open label study of CVT-3146 IV bolus on CBFv (Doppler flow wire) in patients undergoing coronary catheterization; type: in vivo, humans
# Experimental: The purpose of this open label study was to determine the magnitude and duration of effect of CVT-3146 (10-500 μg) on CBFv in humans.
# METHODS: Patients undergoing a clinically indicated coronary catheterization with no more than a 70% stenosis in any coronary artery and no more than a 50% stenosis of the study vessel had CBFv determined by Doppler flow wire. Study subject were selected after measuring baseline and peak CBFv after an intracoronary (IC) injection of 18 μg of Ado. Twenty-three patients, who were identified as meeting the study criteria of having a peak to baseline CBFv ratio of ≧2.5 in response to Adenosine, received a rapid (<10 sec) peripheral IV bolus of CVT-3146; Doppler signals were stable and interpretable over the time-course of the increase in CBFv in 17 patients.
# [3] = Example 3: maximum tolerated dose and safety of single IV bolus CVT-3146 in healthy volunteers, supine and standing; type: in vivo; conditions: 30 μg/kg supine, 4 subjects per group
# Experimental: This Example is a study performed to evaluate (1) the maximum tolerated dose of CVT-3146 and (2) the pharmacokinetic profile of CVT-3146 in healthy volunteers, after a single IV bolus dose.
# The study was performed using thirty-six healthy, non-smoking male subjects between the ages of 18 and 59 and within 15% of ideal body weight.
# The study was performed in phase 1, single center, double-blind, randomized, placebo-controlled, crossover, ascending dose study. Randomization was to CVT-3146 or placebo, in both supine and standing positions.
# CVT-3146 was administered as an IV bolus (20, seconds) in ascending doses of […], 10, 20, and 30 μg/kg.
# Subjects received either CVT-3146 of placebo on Day 1 supine, then crossover treatment on Day 2 supine. On Day 3, subjects received CVT-3146 or placebo standing, then crossover treatment on Day 4 standing.
# Patient safety was monitored by ECG, laboratory assessments, and collection of vital signs and adverse events.
# Pharmacodynamics: • The study evaluated the relationship of changes in heart rate to dose in both standing and supine positions and plasma concentration in the supine position. Results
# [4] = Example 7: adverse effects and hemodynamic effects of CVT-3146 as pharmacologic stress agent in MPI protocol; type: in vivo, human
# Text: CVT-3146 is a selective A2A adenosine receptor agonist that produces coronary hyperemia and potentially less adverse effects due to its limited stimulation of receptor subtypes not involved with coronary vasodilation. This study evaluated the effectiveness of CVT-3146 as a pharmacologic stress agent.
# 36 subjects (27 men, 9 women; 67±10 years) were studied with two doses of CVT-3146 [400 mcg (n=18), 500 mcg (n=18)], administered as an IV bolus, as part of a pharmacologic stress myocardial perfusion imaging protocol.
# [5] = system: blood flow velocity in LCX, BA, FA and PA; test: Example 4: blood flow velocity (APV) in various vascular beds in the anesthetized dog; type: in vivo; conditions: 1.0 μg/kg iv bolus
# Text: CVT-3146 is a novel selective A2A adenosine receptor agonist being developed as a pharmacologic stressor for radionuclide myocardial perfusion imaging. […] The goal of this study was to determine the differential effects of CVT-3146 on blood flow velocity in various vascular beds.
# The effects of CVT-3146 were quantified as the average peak blood flow velocity (APV) using intravascular Doppler transducer tipped catheter. Heart rate (HR) and systemic arterial blood pressure (BP) were also monitored.
# [6] = 36 subjects, 400 or 500 mcg IV bolus
compound,measurement,setting,value
"CNC(=O)c1cnn(-c2nc(N)c3ncn([C@@H]4O[C@H](CO)[C@@H](O)[C@H]4O)c3n2)c1 [CVT-3146, (1-{9-[(4S,2R,3R,5R)-3,4-dihydroxy-5-(hydroxymethyl)oxolan-2-yl]-6-aminopurin-2-yl}pyrazol-4-yl)-N-methylcarboxamide]",solubility in a pharmaceutical composition including MBA,[1],tends to decrease as the composition pH drops towards neutral
same,maximal decrease in systolic blood pressure (BP),[2]; 500 μg (n=3),8.7±7.6
same,maximal increase in heart rate (HR),[2]; 500 μg (n=3),18.7±4.0
same,adverse events (AEs),"[2]; 500 μg dose, 3 patients",No AEs were noted
same,adverse events (AEs),[2]; 10-500 μg IV bolus,"infrequent and included nausea, flushing, and headache; these were mild and self-limited"
same,"time at which increase in CBFv was near peak, post onset of bolus","[2]; IV bolus, humans",30 to 40 s
same,"Dizziness labeled as severe, number of subjects with AE",[3],0
same,"Palpitation labeled as severe, number of subjects with AE",[3],2
same,"Syncope labeled as severe, number of subjects with AE",[3],0
same,incidence of adverse effects (AE),[4]; [6],72%
same,patients with adverse effects (AE),[4]; [6],26 pts
same,tolerability,[4]; 400 and 500 mcg IV bolus,well-tolerated and has acceptable hemodynamic effects
same,"Diastolic BP, peak Absolute Change","[4]; 400 and 500 mcg, mean±S.D.",−5.4 ± 7.2 mmHg
same,"Diastolic BP, peak Relative Change","[4]; 400 and 500 mcg, mean±S.D.",−7.9% ± 10.5%
same,"Heart Rate, peak Absolute Change","[4]; 400 and 500 mcg, mean±S.D.",+21.9 ± 10.4 beats per min
same,"Heart Rate, peak Relative Change","[4]; 400 and 500 mcg, mean±S.D.",+36.7% + 21.0%
same,"Systolic BP, peak Absolute Change","[4]; 400 and 500 mcg, mean±S.D.",−5.9 ± 10.7 mmHg
same,"Systolic BP, peak Relative Change","[4]; 400 and 500 mcg, mean±S.D.",−4.1% ± 7.6%
same,serious AE,[4]; both doses,"One serious AE occurred, with exacerbation of a migraine headache"
same,share of AEs mild to moderate,[4]; both doses,96%
same,share of AEs resolved within 15 min without treatment,[4]; both doses,91%
same,"time of peak hemodynamic effect, heart rate (HR)",[4]; both doses,≤ 0.033 h
same,"time of peak hemodynamic effect, systolic blood pressure (BP)",[4]; both doses,4 min
same,deviation of BP from baseline,[4]; thirty min after CVT-3146,< 2%
same,decrease in BP,[5],12 mmHg
same,time for effect on blood flow velocity to dissipate,[5],less than ten
same,transient increase in HR,[5],16 bpm
